# pEC50: −log10 of the molar value.
# Target: FXR (Homo sapiens (Human), UniProt Q96RI1)
# Assay: transient human FXR/Gal4-luciferase reporter assay
# Format: cell-based
# Conditions: not given
# Outline: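 HEK293 cells stably carrying a 5×Gal4 response element–firefly luciferase reporter were transiently transfected overnight with a Gal4 DBD–human FXR LBD fusion plasmid. Compound was added in DMSO and cells were incubated overnight at 37 °C, 5% CO2. Activity was read as Steady-Glo luminescence.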
# FXR, sequence (Q96RI1 262-486): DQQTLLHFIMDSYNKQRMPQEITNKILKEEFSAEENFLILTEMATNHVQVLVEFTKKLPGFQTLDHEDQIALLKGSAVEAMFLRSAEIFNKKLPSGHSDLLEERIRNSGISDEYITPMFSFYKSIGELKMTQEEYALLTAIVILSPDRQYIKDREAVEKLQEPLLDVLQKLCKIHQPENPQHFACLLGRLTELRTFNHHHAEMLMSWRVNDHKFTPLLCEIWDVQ
row,SMILES,pEC50
1,"CCc1ccc(-c2cccc(N(CC34CCC(c5ccc(C(F)(F)F)cn5)(CC3)CC4)C(=O)C34CC(F)(C3)C4)c2)cc1 [Example 497, N-(4′-ethyl-[1,1′-biphenyl]-3-yl)-3-fluoro-N-((4-(5-(trifluoromethyl)pyridin-2-yl)bicyclo[2.2.2]octan-1-yl)methyl)bicyclo[1.1.1]pentane-1-carboxamide]",6.00
2,"CC(C)(C)c1nc(C23CCC(CN(C(=O)C45CC(F)(C4)C5)c4cc(-c5ccc(NS(C)(=O)=O)cc5)ccn4)(CC2)CC3)no1 [Example 534, N-((4-(5-(tert-butyl)-1,2,4-oxadiazol-3-yl)bicyclo[2.2.2]octan-1-yl)methyl)-3-fluoro-N-(4-(4-(methylsulfonamido)phenyl)pyridin-2-yl)bicyclo[1.1.1]pentane-1-carboxamide]",7.11
3,"CCOc1cnc(-c2cccc(N(CC34CCC(c5ccc(C(F)(F)F)cn5)(CC3)CC4)C(=O)C34CC(F)(C3)C4)c2)nc1 [Example 498, N-(3-(5-ethoxypyrimidin-2-yl)phenyl)-3-fluoro-N-((4-(5-(trifluoromethyl)pyridin-2-yl)bicyclo[2.2.2]octan-1-yl)methyl)bicyclo[1.1.1]pentane-1-carboxamide]",6.28
4,"CS(=O)(=O)Nc1ccc(-c2cccc(N(CC34CCC(c5noc(C6(C(F)(F)F)CC6)n5)(CC3)CC4)C(=O)C34CC(F)(C3)C4)c2)cc1 [Example 523, 3-fluoro-N-(4′-(methylsulfonamido)-[1,1′-biphenyl]-3-yl)-N-((4-(5-(1-(trifluoromethyl)cyclopropyl)-1,2,4-oxadiazol-3-yl)bicyclo[2.2.2]octan-1-yl)methyl)bicyclo[1.1.1]pentane-1-carboxamide]",6.72
5,"CC(C)(O)c1ccc(-c2cccc(N(CC34CCC(c5noc(C(C)(C)F)n5)(CC3)CC4)C(=O)N3CC(O)(C(F)(F)F)C3)c2)cc1 [Example 643, N-((4-(5-(2-fluoropropan-2-yl)-1,2,4-oxadiazol-3-yl)bicyclo[2.2.2]octan-1-yl)methyl)-3-hydroxy-N-(4′-(2-hydroxypropan-2-yl)-[1,1′-biphenyl]-3-yl)-3-(trifluoromethyl)azetidine-1-carboxamide]",6.63
6,"Cc1nc2ccc(-c3cccc(N(CC45CCC(c6noc(C7(C(F)(F)F)CC7)n6)(CC4)CC5)C(=O)C45CC(F)(C4)C5)c3)cc2s1 [Example 524, 3-fluoro-N-(3-(2-methylbenzo[d]thiazol-6-yl)phenyl)-N-((4-(5-(1-(trifluoromethyl)cyclopropyl)-1,2,4-oxadiazol-3-yl)bicyclo[2.2.2]octan-1-yl)methyl)bicyclo[1.1.1]pentane-1-carboxamide]",6.92
7,"CC(C)(O)c1ccc(-c2cccc(N(CC34CCC(c5noc(C(C)(C)F)n5)(CC3)CC4)C(=O)NCCN3CCOCC3)c2)cc1 [Example 649, 1-((4-(5-(2-fluoropropan-2-yl)-1,2,4-oxadiazol-3-yl)bicyclo[2.2.2]octan-1-yl)methyl)-1-(4′-(2-hydroxypropan-2-yl)-[1,1′-biphenyl]-3-yl)-3-(2-morpholinoethyl)urea]",6.22
8,"CCOc1ncc(-c2cccc(N(CC34CCC(c5noc(C(C)(C)C)n5)(CC3)CC4)C(=O)C3(C)COC3)c2)cn1 [Example 510, N-((4-(5-(tert-butyl)-1,2,4-oxadiazol-3-yl)bicyclo[2.2.2]octan-1-yl)methyl)-N-(3-(2-ethoxypyrimidin-5-yl)phenyl)-3-methyloxetane-3-carboxamide]",6.01

# Same assay, conditions: Gal4-hFXR fusion construct, HEK293 reporter cells; response relative to 8 μM GW-4064
row,SMILES,pEC50
1,"CC(C)(C)c1nc(C23CCC(CN(C(=O)C45CC(F)(C4)C5)c4cccc(-c5ccc(NS(=O)(=O)C(F)(F)F)cc5)c4)(CC2)CC3)no1 [Example 446, N-((4-(5-(tert-butyl)-1,2,4-oxadiazol-3-yl)bicyclo[2.2.2]octan-1-yl)methyl)-3-fluoro-N-(4′-((trifluoromethyl)sulfonamido)-[1,1′-biphenyl]-3-yl)bicyclo[1.1.1]pentane-1-carboxamide]",6.65
2,"O=C(N(CC12CCC(c3nc(C4CC4)no3)(CC1)CC2)c1cccc(-c2nc3cc(F)ccc3o2)c1)C12CC(F)(C1)C2 [Example 559, N-((4-(3-Cyclopropyl-1,2,4-oxadiazol-5-yl)bicyclo[2.2.2]octan-1-yl)methyl)-3-fluoro-N-(3-(5-fluorobenzo[d]oxazol-2-yl)phenyl)bicyclo[1.1.1]pentane-1-carboxamide]",6.66
3,"Cn1nc(C2CC2)cc1C12CCC(CN(C(=O)C34CC(F)(C3)C4)c3cc(-c4ccc(OC(F)F)cc4)ccn3)(CC1)CC2 [Example 545, N-((4-(3-cyclopropyl-1-methyl-1H-pyrazol-5-yl)bicyclo[2.2.2]octan-1-yl)methyl)-N-(4-(4-(difluoromethoxy)phenyl)pyridin-2-yl)-3-fluorobicyclo[1.1.1]pentane-1-carboxamide]",6.94
4,"COc1cc(-c2cccc(N(CC34CCC(c5cc(C(F)(F)F)ccn5)(CC3)CC4)C(=O)C34CC(F)(C3)C4)c2)ccn1 [Example 241, 3-fluoro-N-(3-(2-methoxypyridin-4-yl)phenyl)-N-((4-(4-(trifluoromethyl)pyridin-2-yl)bicyclo[2.2.2]octan-1-yl)methyl)bicyclo[1.1.1]pentane-1-carboxamide]",5.98
5,"CCOc1ncc(-c2cccc(N(CC34CCC(c5cnc(C(F)(F)F)nc5)(CC3)OC4)C(=O)C34CC(F)(C3)C4)c2)cn1 [Example 418, N-(3-(2-ethoxypyrimidin-5-yl)phenyl)-3-fluoro-N-((1-(2-(trifluoromethyl)pyrimidin-5-yl)-2-oxabicyclo[2.2.2]octan-4-yl)methyl)bicyclo[1.1.1]pentane-1-carboxamide]",5.69
6,"CCOc1ccc(-c2cccc(N(CC34CCC(c5noc(C6(C(F)(F)F)CC6)n5)(CC3)CC4)C(=O)C34CC(F)(C3)C4)c2)cc1 [Example 521, N-(4′-ethoxy-[1,1′-biphenyl]-3-yl)-3-fluoro-N-((4-(5-(1-(trifluoromethyl)cyclopropyl)-1,2,4-oxadiazol-3-yl)bicyclo[2.2.2]octan-1-yl)methyl)bicyclo[1.1.1]pentane-1-carboxamide]",6.95
7,"CC(C)Oc1ccc(-c2cc(N(CC34CCC(c5noc(C6(F)CC6)n5)(CC3)CC4)C(=O)[C@H]3C[C@](O)(C(F)(F)F)C3)ccc2F)cc1 [Example 581, (cis)-N-(6-fluoro-4′-isopropoxy-[1,1′-biphenyl]-3-yl)-N-((4-(5-(1-fluorocyclopropyl)-1,2,4-oxadiazol-3-yl)bicyclo[2.2.2]octan-1-yl)methyl)-3-hydroxy-3-(trifluoromethyl)cyclobutane-1-carboxamide]",7.13
8,"CC(C)(C)c1nc(C23CCC(CN(C(=O)C45CC(F)(C4)C5)c4cccc(-c5cnc(C6CC6)nc5)c4)(CC2)CC3)no1 [Example 442, N-((4-(5-(tert-butyl)-1,2,4-oxadiazol-3-yl)bicyclo[2.2.2]octan-1-yl)methyl)-N-(3-(2-cyclopropylpyrimidin-5-yl)phenyl)-3-fluorobicyclo[1.1.1]pentane-1-carboxamide]",7.15
9,"O=C(N(CC12CCC(c3nc(C4CC4)no3)(CC1)CC2)c1cccc(-c2cnc(C3CC3)nc2)c1)C12CC(F)(C1)C2 [Example 271, N-((4-(3-cyclopropyl-1,2,4-oxadiazol-5-yl)bicyclo[2.2.2]octan-1-yl)methyl)-N-(3-(2-cyclopropylpyrimidin-5-yl)phenyl)-3-fluorobicyclo[1.1.1]pentane-1-carboxamide]",7.64
10,"CO[C@H]1C[C@@H](C(=O)N(CC23CCC(c4noc(C(C)(C)C)n4)(CC2)CC3)c2cccc(-c3ccc(NS(C)(=O)=O)cc3)c2)C1 [Example 514, (1S,3S)—N-((4-(5-(tert-butyl)-1,2,4-oxadiazol-3-yl)bicyclo[2.2.2]octan-1-yl)methyl)-3-methoxy-N-(4′-(methylsulfonamido)-[1,1′-biphenyl]-3-yl)cyclobutane-1-carboxamide]",5.65
11,"CC(C)Oc1ccc(-c2cccc(N(CC34CCC(c5noc(C(C)(C)F)n5)(CC3)CC4)C(=O)OC3(C(F)(F)F)COC3)c2)cc1 [Example 632, 3-(trifluoromethyl)oxetan-3-yl ((4-(5-(2-fluoropropan-2-yl)-1,2,4-oxadiazol-3-yl)bicyclo[2.2.2]octan-1-yl)methyl)(4′-isopropoxy-[1,1′-biphenyl]-3-yl)carbamate]",6.65
12,"COc1ncc(-c2cccc(N(CC34CCC(c5nc(C(C)C)no5)(CC3)CC4)C(=O)C34CC(F)(C3)C4)c2)cn1 [Example 383, 3-Fluoro-N-((4-(3-isopropyl-1,2,4-oxadiazol-5-yl)bicyclo[2.2.2]octan-1-yl)methyl)-N-(3-(2-methoxypyrimidin-5-yl)phenyl)bicyclo[1.1.1]pentane-1-carboxamide]",7.33
13,"Cc1nc2ccc(-c3cccc(N(CC45CCC(c6nnc(C7CC7)o6)(CC4)CC5)C(=O)C45CC(F)(C4)C5)c3)cc2s1 [Example 561, N-((4-(5-cyclopropyl-1,3,4-oxadiazol-2-yl)bicyclo[2.2.2]octan-1-yl)methyl)-3-fluoro-N-(3-(2-methylbenzo[d]thiazol-6-yl)phenyl)bicyclo[1.1.1]pentane-1-carboxamide]",7.24
14,"COc1cnc(-c2cccc(N(CC34CCC(c5noc(C(C)(C)C)n5)(CC3)CC4)C(=O)C34CC(F)(C3)C4)c2)nc1 [Example 450, N-((4-(5-(tert-butyl)-1,2,4-oxadiazol-3-yl)bicyclo[2.2.2]octan-1-yl)methyl)-3-fluoro-N-(3-(5-methoxypyrimidin-2-yl)phenyl)bicyclo[1.1.1]pentane-1-carboxamide]",7.17
15,"CC(C)(C)c1noc(C23CCC(CN(C(=O)C45CC(F)(C4)C5)c4cccc(-c5cnc(C6CC6)nc5)c4)(CC2)CC3)n1 [Example 358, N-((4-(3-(tert-butyl)-1,2,4-oxadiazol-5-yl)bicyclo[2.2.2]octan-1-yl)methyl)-N-(3-(2-cyclopropylpyrimidin-5-yl)phenyl)-3-fluorobicyclo[1.1.1]pentane-1-carboxamide]",6.81

# Reference: patent US11254663B2 (BRISTOL-MYERS SQUIBB COMPANY, priority 2019, dated 2022)
